Test results reported in ChEMBL document CHEMBL4622872, “Discovery of DS-1971a, a Potent, Selective NaV1.7 Inhibitor” (J Med Chem, 2020).
≈ marks a conversion by molar mass, not a printed value.

Key:
[1] = Aqueous thermodynamic solubility of the compound at pH 6.8 measured after 4 hrs by UV-HPLC analysis; format: physicochemical; settings: buffer, pH 6.8; read-out: Therm_solubility
[2] = Stability of the compound in mouse liver microsomes assessed as parent compound remaining measured after 0.5 hrs; format: ADME, Microsome; settings: for remaining at 0.5 h: mouse liver microsomes, read-out: Stability
[3] = Distribution coefficient, log D of the compound in 1-octanol and PBS buffer at pH 7.4 measured after 30 mins by LC-MS analysis; format: physicochemical; settings: 1-octanol/PBS buffer

solubility thermodynamic at 4 h [1]	remaining at 0.5 h [2]	logD at 0.5 h [3]	Stability ([2]; microsomes, 0.5 h)	SMILES
1800 µM (≈ 809 µg/mL)	77%	0.1	–	Cn1nccc1[C@H]1CCCC[C@@H]1Oc1cc(F)c(S(=O)(=O)Nc2ccncn2)c(F)c1 (racemic)
250 µM (≈ 110 µg/mL)	54%	2.1	–	Cn1nccc1[C@H]1CCC[C@@H]1Oc1cc(F)c(S(=O)(=O)Nc2nccs2)cc1F (racemic)
660 µM (≈ 300 µg/mL)	28%	1.8	–	Cn1nccc1[C@H]1CCCC[C@@H]1Oc1cc(F)c(S(=O)(=O)Nc2cscn2)cc1F (racemic)
> 2000 µM	–	0.8	70%	Cn1nccc1[C@H]1CCCC[C@@H]1Oc1cc(F)c(S(=O)(=O)Nc2ccncn2)cc1Cl (racemic) [DS-1971]
